# pIC50: −log10 of the molar value. Several values for one entry are separate records, joined by “and”; a condition that tells them apart may be missing. Identical values can stand only once. Entries after “also recorded” stand apart in the source; their conditions may differ. Like-named read-outs stand apart in the source and are kept apart here.
# How the values were obtained:
# [1] = test system: TTX-sensitive Nav channels in mouse DRG neuron; type: cell-based
# [2] = target: hNav1.3 (Homo sapiens, UniProt Q9NY46); assay: cell-based; conditions: IonWorks Quattro; read-out: IC50 Nav1.3
# [3] = target: T1, hNav1.4 (Homo sapiens, UniProt P35499); assay: cell-based; conditions: for pIC50: PatchXpress, read-out: PX hNav1.4 Tonic IC50
# [4] = target: T2, hNav1.7 (Homo sapiens, UniProt Q15858); assay: cell-based; conditions: IonWorks Quattro; read-out: IC50 Nav1.7
# [5] = target: T2, hNav1.7; assay: cell-based; type: cell-based; conditions: PatchXpress, read-out: PX hNav1.7 Tonic IC50
# [6] = target: T3, hNav1.5 (Homo sapiens, UniProt Q14524); assay: cell-based; conditions: for pIC50: PatchXpress, read-out: PX hNav1.5 Tonic IC50
# [7] = target: T3, hNav1.5; assay: cell-based; conditions: IonWorks Quattro; read-out: IC50 Nav1.5
# [8] = target: T1, hNav1.4; assay: cell-based; conditions: for pIC50: IonWorks Quattro, read-out: IC50 Nav1.4; for Nav1.4/Nav1.7: ratio of IonWorks Quattro IC50 values
# [9] = * = at high concentrations compound would wash off slowly or not at all
# Chain of hNav1.3 (Q9NY46 whole entry): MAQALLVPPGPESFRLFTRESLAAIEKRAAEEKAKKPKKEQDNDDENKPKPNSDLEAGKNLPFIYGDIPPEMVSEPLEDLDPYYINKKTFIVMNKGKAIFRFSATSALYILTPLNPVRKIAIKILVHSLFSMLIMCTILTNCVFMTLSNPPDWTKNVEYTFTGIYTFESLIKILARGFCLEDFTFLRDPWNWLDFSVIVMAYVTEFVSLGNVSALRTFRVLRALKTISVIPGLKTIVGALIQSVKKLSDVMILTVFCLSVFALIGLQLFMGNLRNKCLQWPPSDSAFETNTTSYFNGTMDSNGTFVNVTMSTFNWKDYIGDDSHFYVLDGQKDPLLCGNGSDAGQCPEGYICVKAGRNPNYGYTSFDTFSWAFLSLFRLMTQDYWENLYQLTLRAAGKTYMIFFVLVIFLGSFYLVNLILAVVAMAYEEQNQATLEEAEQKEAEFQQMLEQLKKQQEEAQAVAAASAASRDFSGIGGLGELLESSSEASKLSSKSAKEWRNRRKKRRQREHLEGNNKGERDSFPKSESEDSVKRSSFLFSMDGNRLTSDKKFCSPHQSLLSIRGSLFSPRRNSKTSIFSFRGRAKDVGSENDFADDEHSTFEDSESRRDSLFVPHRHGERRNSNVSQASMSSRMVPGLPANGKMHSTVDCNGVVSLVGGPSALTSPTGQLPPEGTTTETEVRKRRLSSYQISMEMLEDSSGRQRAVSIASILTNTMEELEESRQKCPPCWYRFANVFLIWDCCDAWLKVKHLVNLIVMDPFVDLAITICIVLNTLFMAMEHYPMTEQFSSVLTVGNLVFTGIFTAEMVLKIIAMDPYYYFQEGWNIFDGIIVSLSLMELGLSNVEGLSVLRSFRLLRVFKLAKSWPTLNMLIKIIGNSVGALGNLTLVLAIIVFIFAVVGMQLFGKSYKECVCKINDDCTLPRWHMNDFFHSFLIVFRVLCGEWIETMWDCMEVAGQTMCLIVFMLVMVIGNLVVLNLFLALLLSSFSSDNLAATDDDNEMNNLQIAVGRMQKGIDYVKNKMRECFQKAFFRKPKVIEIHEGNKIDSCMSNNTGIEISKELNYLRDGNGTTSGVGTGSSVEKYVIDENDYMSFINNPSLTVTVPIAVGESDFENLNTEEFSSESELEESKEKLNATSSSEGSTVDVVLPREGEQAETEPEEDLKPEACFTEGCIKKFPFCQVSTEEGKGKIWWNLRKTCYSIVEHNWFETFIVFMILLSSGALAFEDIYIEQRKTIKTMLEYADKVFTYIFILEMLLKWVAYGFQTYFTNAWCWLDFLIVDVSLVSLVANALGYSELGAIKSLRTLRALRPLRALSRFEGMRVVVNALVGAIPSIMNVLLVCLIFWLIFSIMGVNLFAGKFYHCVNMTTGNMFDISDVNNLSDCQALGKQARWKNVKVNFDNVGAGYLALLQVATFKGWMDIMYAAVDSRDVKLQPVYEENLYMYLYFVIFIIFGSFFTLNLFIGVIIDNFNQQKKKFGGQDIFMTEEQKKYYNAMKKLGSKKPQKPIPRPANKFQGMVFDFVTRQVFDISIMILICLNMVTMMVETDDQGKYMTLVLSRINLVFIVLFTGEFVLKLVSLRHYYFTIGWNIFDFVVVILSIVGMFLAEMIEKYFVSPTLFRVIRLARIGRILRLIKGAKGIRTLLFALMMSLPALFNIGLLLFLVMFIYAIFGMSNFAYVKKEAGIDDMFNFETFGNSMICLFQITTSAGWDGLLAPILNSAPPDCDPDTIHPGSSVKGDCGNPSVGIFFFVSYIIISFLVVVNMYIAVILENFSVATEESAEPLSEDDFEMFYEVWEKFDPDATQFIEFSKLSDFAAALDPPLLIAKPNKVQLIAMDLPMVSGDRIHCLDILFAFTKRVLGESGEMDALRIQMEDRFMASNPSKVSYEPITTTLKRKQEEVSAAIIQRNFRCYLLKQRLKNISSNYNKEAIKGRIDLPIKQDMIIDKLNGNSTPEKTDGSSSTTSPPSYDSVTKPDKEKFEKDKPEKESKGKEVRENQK
# T1 sequence (P35499 whole entry): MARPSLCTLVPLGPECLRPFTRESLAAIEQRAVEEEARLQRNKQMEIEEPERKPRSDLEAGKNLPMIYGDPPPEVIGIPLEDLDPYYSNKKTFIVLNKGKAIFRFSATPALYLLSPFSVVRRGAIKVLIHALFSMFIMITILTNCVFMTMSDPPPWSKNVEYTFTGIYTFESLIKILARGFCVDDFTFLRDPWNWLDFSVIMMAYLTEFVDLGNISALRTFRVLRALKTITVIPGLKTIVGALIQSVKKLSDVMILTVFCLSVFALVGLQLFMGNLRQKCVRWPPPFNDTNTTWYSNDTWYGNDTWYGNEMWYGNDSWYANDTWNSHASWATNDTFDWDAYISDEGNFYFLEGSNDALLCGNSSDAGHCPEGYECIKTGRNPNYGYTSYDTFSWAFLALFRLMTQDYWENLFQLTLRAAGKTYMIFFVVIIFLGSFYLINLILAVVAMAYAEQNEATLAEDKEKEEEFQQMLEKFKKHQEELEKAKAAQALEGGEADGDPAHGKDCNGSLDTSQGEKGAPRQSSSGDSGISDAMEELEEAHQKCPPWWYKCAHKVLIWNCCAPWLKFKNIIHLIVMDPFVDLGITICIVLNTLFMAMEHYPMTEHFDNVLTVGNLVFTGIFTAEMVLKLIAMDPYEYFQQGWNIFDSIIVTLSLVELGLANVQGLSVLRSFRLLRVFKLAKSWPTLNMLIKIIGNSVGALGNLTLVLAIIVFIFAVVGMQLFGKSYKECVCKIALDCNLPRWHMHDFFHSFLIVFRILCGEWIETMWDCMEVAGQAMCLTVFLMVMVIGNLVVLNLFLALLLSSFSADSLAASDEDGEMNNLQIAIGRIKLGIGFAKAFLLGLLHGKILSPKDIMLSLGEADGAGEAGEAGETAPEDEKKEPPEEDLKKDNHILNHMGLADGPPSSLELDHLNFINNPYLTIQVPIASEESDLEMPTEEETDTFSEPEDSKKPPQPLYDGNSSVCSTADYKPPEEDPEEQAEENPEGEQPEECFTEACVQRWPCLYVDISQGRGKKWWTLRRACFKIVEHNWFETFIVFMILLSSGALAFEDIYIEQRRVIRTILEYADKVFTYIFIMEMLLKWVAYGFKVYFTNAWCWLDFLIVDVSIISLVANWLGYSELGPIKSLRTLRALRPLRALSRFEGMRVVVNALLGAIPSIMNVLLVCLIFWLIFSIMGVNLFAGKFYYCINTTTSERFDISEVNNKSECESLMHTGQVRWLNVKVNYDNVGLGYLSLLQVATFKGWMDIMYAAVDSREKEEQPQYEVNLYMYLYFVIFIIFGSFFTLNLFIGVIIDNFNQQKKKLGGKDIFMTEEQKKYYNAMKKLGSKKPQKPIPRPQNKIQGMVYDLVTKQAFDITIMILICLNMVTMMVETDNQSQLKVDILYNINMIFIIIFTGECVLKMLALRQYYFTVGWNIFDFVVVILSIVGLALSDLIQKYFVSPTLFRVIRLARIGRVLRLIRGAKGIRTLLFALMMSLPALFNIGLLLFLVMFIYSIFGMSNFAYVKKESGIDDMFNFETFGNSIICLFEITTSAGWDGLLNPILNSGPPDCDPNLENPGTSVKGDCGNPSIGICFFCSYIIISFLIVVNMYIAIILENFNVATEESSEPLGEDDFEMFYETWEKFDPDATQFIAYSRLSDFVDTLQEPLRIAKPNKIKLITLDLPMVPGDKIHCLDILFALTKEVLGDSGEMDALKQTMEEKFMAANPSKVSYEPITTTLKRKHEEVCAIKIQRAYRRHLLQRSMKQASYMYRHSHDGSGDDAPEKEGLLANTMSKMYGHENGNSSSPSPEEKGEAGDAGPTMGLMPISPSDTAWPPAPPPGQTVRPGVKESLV
SMILES,potency relative to JzTx-V (less potent) [1],"block of TTX-sensitive Nav current ([1]; 300 nM SEQ ID NO:392, held at −88 mV)",pIC50 [2],"pIC50 [3, 9]",pIC50 [4],"pIC50 [5, 9]","pIC50 [6, 9]",pIC50 [7],pIC50 [8],Nav1.5/Nav1.7 ([6]; ratio of PX IC50 values),Nav1.4/Nav1.7 [8],pIC50 ([3]; tonic block),Nav1.4/Nav1.7 ([3]; ratio of PX tonic IC50 values),pIC50 ([5]; tonic block),pIC50 ([6]; tonic block)
"C#CC[C@H](N)C(=O)NCCCC[C@@H]1NC(=O)[C@H](CCCNC(=N)N)NC(=O)[C@H](CCCCN)NC(=O)[C@H](CO)NC(=O)[C@H](CC(=O)O)NC(=O)[C@@H]2CSSC[C@@H]3NC(=O)[C@H](CCCNC(=N)N)NC(=O)[C@H](CC(C)C)NC(=O)CNC(=O)[C@H](CCC(=O)O)NC(=O)[C@H](CSSC[C@H](NC(=O)[C@H](Cc4ccc(O)cc4)NC(=O)[C@@H](N)CC#N)C(=O)N[C@@H](CCC(N)=O)C(=O)N[C@@H](CCCCN)C(=O)N[C@@H](Cc4c[nH]c5ccccc45)C(=O)N[C@@H](CCCC)C(=O)N[C@@H](Cc4c[nH]c5ccccc45)C(=O)N[C@@H]([C@@H](C)O)C(=O)N2)NC(=O)[C@H](CSSC[C@@H](C(=O)N[C@@H](CCCNC(=N)N)C(=O)N[C@@H](CCCCN)C(=O)N[C@@H](CCC(=O)O)C(=O)N[C@H](C(N)=O)[C@@H](C)CC)NC(=O)[C@H](Cc2c[nH]c4ccccc24)NC(=O)[C@H](CC(C)C)NC(=O)[C@H](CCCCN)NC3=O)NC1=O [SEQ ID NO: 392, CyA-[Nle6,Lys(Pra)14,Glu28]JzTx-V(1-29)]",about 3 fold,blocked most TTX-sensitive Nav current; also recorded: almost complete inhibition,–,–,–,–,–,–,–,–,–,–,–,–,–
CC[C@H](C)[C@H](NC(=O)[C@H](Cc1ccc(O)cc1)NC(=O)[C@H](CCCCN)NC(=O)[C@H](CCCNC(=N)N)NC(=O)[C@@H]1CSSC[C@@H]2NC(=O)[C@H](C)NC(=O)[C@H](CCCNC(=N)N)NC(=O)[C@H](CCCCN)NC(=O)[C@H](CO)NC(=O)[C@H](CC(=O)O)NC(=O)[C@@H]3CSSC[C@H](NC(=O)[C@H](CCC(=O)O)NC(=O)[C@H](CC(C)C)NC(=O)CNC(=O)[C@H](CCC(=O)O)NC(=O)[C@H](CSSC[C@H](NC(=O)[C@@H](N)Cc4ccc(O)cc4)C(=O)N[C@@H](CCC(N)=O)C(=O)N[C@@H](CCCCN)C(=O)N[C@@H](Cc4c[nH]c5ccccc45)C(=O)N[C@@H](CCSC)C(=O)N[C@@H](Cc4c[nH]c5ccccc45)C(=O)N[C@@H]([C@@H](C)O)C(=O)N3)NC2=O)C(=O)N[C@@H](CCCCN)C(=O)N[C@@H](CC(C)C)C(=O)N[C@@H](Cc2cccc3ccccc23)C(=O)N1)C(N)=O [compound 218],–,–,< 5.15,5.28,6.52,7.92,5.00,< 5.15,< 5.15,–,–,–,–,–,–
CSCC[C@@H]1NC(=O)[C@H](Cc2c[nH]c3ccccc23)NC(=O)[C@H](CCCCN)NC(=O)[C@H](CCC(N)=O)NC(=O)[C@@H](NC(=O)[C@@H](N)Cc2ccc(O)cc2)CSSC[C@@H]2NC(=O)[C@@H]3CSSC[C@@H](C(=O)N[C@@H](CCCNC(=N)N)C(=O)N[C@@H](CCCCN)C(=O)N[C@@H](Cc4ccc(O)cc4)C(=O)N[C@@H](Cc4cccc5ccccc45)C(N)=O)NC(=O)[C@H](Cc4c[nH]c5ccccc45)NC(=O)[C@H](CC(C)C)NC(=O)[C@H](CCCCN)NC(=O)[C@H](CSSC[C@H](NC(=O)[C@H]([C@@H](C)O)NC(=O)[C@H](Cc4c[nH]c5ccccc45)NC1=O)C(=O)N[C@@H](CC(=O)O)C(=O)N[C@@H](CO)C(=O)N[C@@H](CCCCN)C(=O)N[C@@H](CCCNC(=N)N)C(=O)N[C@@H](C)C(=O)N3)NC(=O)[C@H](CCC(=O)O)NC(=O)[C@H](CC(C)C)NC(=O)CNC(=O)[C@H](CCC(=O)O)NC2=O [compound 232],–,–,5.68,5.78,7.30,8.35,5.67,5.34,5.34,480,91,–,–,–,–
CSCC[C@@H]1NC(=O)[C@H](Cc2c[nH]c3ccccc23)NC(=O)[C@H](CCCCN)NC(=O)[C@H](CCC(N)=O)NC(=O)[C@@H](NC(=O)[C@@H](N)Cc2ccc(O)cc2)CSSC[C@@H]2NC(=O)[C@@H]3CSSC[C@@H](C(=O)N[C@@H](CCCNC(=N)N)C(=O)N[C@@H](CCCCN)C(=O)N[C@@H](Cc4ccc(O)cc4)C(=O)N[C@@H](Cc4ccc5ccccc5c4)C(N)=O)NC(=O)[C@H](Cc4c[nH]c5ccccc45)NC(=O)[C@H](CC(C)C)NC(=O)[C@H](CCCCN)NC(=O)[C@H](CSSC[C@H](NC(=O)[C@H]([C@@H](C)O)NC(=O)[C@H](Cc4c[nH]c5ccccc45)NC1=O)C(=O)N[C@@H](CC(=O)O)C(=O)N[C@@H](CO)C(=O)N[C@@H](CCCCN)C(=O)N[C@@H](CCCNC(=N)N)C(=O)N[C@@H](C)C(=O)N3)NC(=O)[C@H](CCC(=O)O)NC(=O)[C@H](CC(C)C)NC(=O)CNC(=O)[C@H](CCC(=O)O)NC2=O [compound 233],–,–,5.66,5.91,7.36,8.34,5.70,< 5.30,< 5.30,–,–,–,–,–,–
CSCC[C@@H]1NC(=O)[C@H](Cc2c[nH]c3ccccc23)NC(=O)[C@H](CCCCN)NC(=O)[C@H](CCC(N)=O)NC(=O)[C@@H](NC(=O)[C@@H](N)Cc2ccc(O)cc2)CSSC[C@@H]2NC(=O)[C@@H]3CSSC[C@@H](C(=O)N[C@@H](CCCNC(=N)N)C(=O)N[C@@H](CCCCN)C(=O)N[C@@H](Cc4ccc(O)cc4)C(=O)N[C@@H](CC(C)C)C(N)=O)NC(=O)[C@H](Cc4c[nH]c5ccccc45)NC(=O)[C@H](CC(C)C)NC(=O)[C@H](CCCCN)NC(=O)[C@H](CSSC[C@H](NC(=O)[C@H]([C@@H](C)O)NC(=O)[C@H](Cc4c[nH]c5ccccc45)NC1=O)C(=O)N[C@@H](CC(=O)O)C(=O)N[C@@H](CO)C(=O)N[C@@H](CCCCN)C(=O)N[C@@H](CCCNC(=N)N)C(=O)N[C@@H](C)C(=O)N3)NC(=O)[C@H](CCC(=O)O)NC(=O)[C@H](CC(C)C)NC(=O)CNC(=O)[C@H](CCC(=O)O)NC2=O [compound 238],–,–,5.52 and < 5.30,6.20,7.08 and 6.64,8.59,5.13,< 5.30,5.35 and < 5.30,–,–,–,–,–,–
CCCC[C@H](NC(=O)[C@H](Cc1ccc(O)cc1)NC(=O)[C@H](CCCCN)NC(=O)[C@H](CCCNC(=N)N)NC(=O)[C@@H]1CSSC[C@@H]2NC(=O)[C@H](C)NC(=O)[C@H](CCCNC(=N)N)NC(=O)[C@H](CCCCN)NC(=O)[C@H](CO)NC(=O)[C@H](CC(=O)O)NC(=O)[C@@H]3CSSC[C@H](NC(=O)[C@H](CCC(=O)O)NC(=O)[C@H](CC(C)C)NC(=O)CNC(=O)[C@H](CCC(=O)O)NC(=O)[C@H](CSSC[C@H](NC(=O)[C@@H](N)Cc4ccc(O)cc4)C(=O)N[C@@H](CCC(N)=O)C(=O)N[C@@H](CCCCN)C(=O)N[C@@H](Cc4c[nH]c5ccccc45)C(=O)N[C@@H](CCSC)C(=O)N[C@@H](Cc4c[nH]c5ccccc45)C(=O)N[C@@H]([C@@H](C)O)C(=O)N3)NC2=O)C(=O)N[C@@H](CCCCN)C(=O)N[C@@H](CC(C)C)C(=O)N[C@@H](Cc2c[nH]c3ccccc23)C(=O)N1)C(N)=O [compound 239],–,–,5.40,6.10,7.10,8.21,5.01,< 5.30,< 5.30,–,–,–,–,–,–
CC[C@H](C)[C@H](NC(=O)[C@H](Cc1ccc(O)cc1)NC(=O)[C@H](CCCCN)NC(=O)[C@H](CCCNC(=N)N)NC(=O)[C@@H]1CSSC[C@@H]2NC(=O)[C@H](C)NC(=O)[C@H](CCCNC(=N)N)NC(=O)[C@H](CCCCN)NC(=O)[C@H](CO)NC(=O)[C@H](CC(=O)O)NC(=O)[C@@H]3CSSC[C@H](NC(=O)[C@H](CCC(=O)O)NC(=O)[C@H](CC(C)C)NC(=O)CNC(=O)[C@H](CCC(=O)O)NC(=O)[C@H](CSSC[C@H](NC(=O)[C@@H](N)CCC(=O)O)C(=O)N[C@@H](CCC(N)=O)C(=O)N[C@@H](CCCCN)C(=O)N[C@@H](Cc4c[nH]c5ccccc45)C(=O)N[C@@H](CCSC)C(=O)N[C@@H](Cc4c[nH]c5ccccc45)C(=O)N[C@@H]([C@@H](C)O)C(=O)N3)NC2=O)C(=O)N[C@@H](CCCCN)C(=O)N[C@@H](CC(C)C)C(=O)N[C@@H](Cc2c[nH]c3ccccc23)C(=O)N1)C(N)=O [compound 277],–,–,< 5.30,6.03,6.68,8.26,< 5.00,5.70,< 5.30,–,–,–,–,–,–
C#CC[C@@H]1NC(=O)[C@H](CCCNC(=N)N)NC(=O)[C@H](CCCCN)NC(=O)[C@H](CO)NC(=O)[C@H](CC(=O)O)NC(=O)[C@@H]2CSSC[C@@H]3NC(=O)[C@H](CCCNC(=N)N)NC(=O)[C@H](CC(C)C)NC(=O)CNC(=O)[C@H](CCC(=O)O)NC(=O)[C@H](CSSC[C@H](NC(=O)[C@@H](N)Cc4ccc(O)cc4)C(=O)N[C@@H](CCC(N)=O)C(=O)N[C@@H](CCCCN)C(=O)N[C@@H](Cc4c[nH]c5ccccc45)C(=O)N[C@@H](CCCC)C(=O)N[C@@H](Cc4c[nH]c5ccccc45)C(=O)N[C@@H]([C@@H](C)O)C(=O)N2)NC(=O)[C@H](CSSC[C@@H](C(=O)N[C@@H](CCCNC(=N)N)C(=O)N[C@@H](CCCCN)C(=O)N[C@H](C(=O)N[C@H](C(N)=O)[C@@H](C)CC)[C@@H](C)CC)NC(=O)[C@H](Cc2c[nH]c4ccccc24)NC(=O)[C@H](CC(C)C)NC(=O)[C@H](CCCCN)NC3=O)NC1=O [compound 283],–,–,7.22,–,7.15,–,–,< 5.15,7.05,–,1,8.30,17,9.52,6.20
